These results are taken from the supplement of paper PMC4862054.

What all share (settings): 72 h
For assay [1], the system named is MDA-MB-453. In outline:
(§1)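 To measure viability, fluorescence at 560/590 nm was read after 2.5 µl CellTiter-Blue had been added for 2 h at 37 °C. Cells from breast cancer lines had been seeded in 20 µl suspension onto 384-well plates pre-loaded with compound dissolved in 5 µl medium and kept for 72 h. EC50 comes from a fitted percent-inhibition dose-response curve censored at the highest concentration, after per-plate normalisation to vehicle and a positive kill control, Z'-factor checks, and removal of rows with zero drug sensitivity score.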

For assay [2], the system named is HDQ-P1. The essentials: as §1
Assay [3] relates to MDA-MB-436. The essentials:
as §1

Assay [4] concerns HCC1937. The essentials:
as §1

Assay [5] deals with MDA-MB-468. As to the method: (§2)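 Drug sensitivity and resistance testing (DSRT) of breast cancer cell lines in 384-well plates, 5 concentrations in 10-fold dilutions over a compound-specific 10,000-fold range. After 72 h, cytotoxicity was read by CellTox Green fluorescence and viability by CellTiter-Glo luminescence (multiplexed), normalised to DMSO and benzethonium chloride controls. EC50 is the inflection point of the fitted dose-response curve (bottom asymptote free, so it can be relative for partial curves) and is censored at the highest tested concentration. Rows with DSS 0 (no meaningful response) were excluded.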

Assay [6] deals with HCC1937. As to the method: as §2
This is another data set of the same source.

Assay [7] relates to DU-4475. In outline:
(§3)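 A 20 µl suspension of breast cancer cells was placed in 384-well plates that already contained compound at 5 concentrations in 10-fold steps across a compound-specific 10,000-fold range, and the plates were left for 72 h. CellTox Green fluorescence at 485/520 nm gave cell death, and CellTiter-Glo luminescence, read after 10 min at room temperature, gave viability. Each plate was normalised to 0.1 % DMSO and a positive kill control. EC50 was fitted from the curves and censored at the top concentration.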

Assay [8] relates to MDA-MB-468. The essentials:
as §3
This is another data set of the same source.

Assay [9] deals with MDA-MB-231. In outline: as §3
For assay [10], the system named is HCC1143. In outline: as §3
Assay [11] deals with MFM-223. In outline:
as §3

Assay [12] relates to CAL-120. The essentials:
as §3

Assay [13] concerns MCF-10A. In outline:
as §3

Assay [14] has as its system CAL-85-1. The essentials: as §3
Assay [15] concerns CAL-148. In outline:
as §3

The test system of assay [16] is HCC1599. In outline: as §3
Assay [17] has as its system Hs578T. The essentials: as §3
Assay [18] concerns MDA-MB-453. The essentials: as §3
This is another data set of the same source.

Assay [19] deals with BT-474. In outline: as §3
Assay [20] has as its system HDQ-P1. In outline:
as §3
The source holds these as a separate data set.

Assay [21] deals with MDA-MB-231. As to the method: as §2
The source holds these as a separate data set.

Assay [22] has as its system MFM-223. The protocol: as §2
This is another data set of the same source.

The subject of assay [23] is MDA-MB-436. As to the method: as §2
The source holds these as a separate data set.

Assay [24] has as its system CAL-51. As to the method:
as §2

For assay [25], the system named is CAL-85-1. As to the method:
as §2
This is another data set of the same source.

The test system of assay [26] is CAL-148. The protocol: as §2
The source holds these as a separate data set.

For assay [27], the system named is DU-4475. In outline: as §1
This is another data set of the same source.

Assay [28] relates to CAL-51. The essentials: as §1
The source holds these as a separate data set.

The subject of assay [29] is CAL-85-1. The essentials: as §1
The source holds these as a separate data set.

In assay [30] the test system is CAL-148. The essentials:
as §1
This is another data set of the same source.

Assay [31] concerns CAL-51. The essentials: as §3
The source holds these as a separate data set.

For assay [32], the system named is SK-BR-3. The essentials: as §3
Assay [33] deals with MDA-MB-468. In outline:
as §1
This is another data set of the same source.

The test system of assay [34] is MDA-MB-231. The essentials: as §1
The source holds these as a separate data set.

The subject of assay [35] is HCC1143. The essentials: as §1
The source holds these as a separate data set.

For assay [36], the system named is MFM-223. In outline: as §1
The source holds these as a separate data set.

Assay [37] relates to CAL-120. The essentials: as §1
The source holds these as a separate data set.

The subject of assay [38] is SK-BR-3. The essentials:
as §1
This is another data set of the same source.

Assay [39] concerns HCC1599. In outline:
as §1
This is another data set of the same source.

Assay [40] relates to Hs578T. In outline: as §1
This is another data set of the same source.

In assay [41] the test system is BT-474. In outline:
as §1
This is another data set of the same source.

The subject of assay [42] is BT-549. In outline:
as §1

A value given as a limit tells only on which side of the number the result lay.

`Cc1ccc(-c2cc(C(F)(F)F)nn2-c2ccc(S(N)(=O)=O)cc2)cc1` [Celecoxib]: the “EC50, CellTiter-Blue viability” value in assay [1] is 7.69 µM; in assay [2], 0.0675 µM; in assay [3], 0.183 µM; in [4], 0.329 µM.
Regarding `O=C(/C=C/c1cccnc1)NCCCCC1CCN(C(=O)c2ccccc2)CC1` [Daporinad], the figures for the “EC50, CellTox Green” value in assay [5] and in assay [6] were 0.596 µM and 0.0241 µM, respectively. In addition, the “EC50, CellTiter-Glo” value in [7] was 0.00678 µM; in assay [8], 0.00353 µM; in assay [9], 0.0296 µM; in [10] it was 0.00805 µM; in assay [11] it was 0.00211 µM; in assay [12], 0.00973 µM. For the same compound, the “EC50, CellTiter-Glo” value in assay [13] turned out to be 0.00785 µM; in assay [14] it was 0.00779 µM; in [15], 0.081 µM; in assay [16], 0.00415 µM; in assay [17], 0.00427 µM; in [18], 0.00271 µM. The figures for the “EC50, CellTiter-Glo” value in assay [19] and in assay [20] were 0.0408 µM and 0.0163 µM, respectively.
In the case of `Nc1ccccc1NC(=O)c1ccc(CNC(=O)OCc2cccnc2)cc1` [Entinostat], the “EC50, CellTox Green” value in assay [5] came out at 1.23 µM; in assay [21], 7.14 µM; in assay [22], 1.44 µM; in assay [23], 6.22 µM; in [24] it was 1.14 µM; in [25], 4.31 µM. Besides, the “EC50, CellTox Green” value in [26] stood at 4.16 µM. Besides, the “EC50, CellTiter-Blue viability” value in assay [27] turned out to be 5.7 µM; in assay [28] it was 7.86 µM; in assay [29] it was 2.7 µM; in assay [30], 2.99 µM; in [1], 2.86 µM; in assay [33], 1.52 µM. The “EC50, CellTiter-Blue viability” value was found to be 2.88 µM in assay [34]; 5.1 µM in [35]; 2.71 µM in assay [36]; 1.89 µM in [37]; 1.17 µM in assay [4]; 0.777 µM in assay [38]. In addition, the “EC50, CellTiter-Blue viability” value in [39] came to 3.68 µM; in [40] it was 5.88 µM; in assay [41], 3.52 µM. For the same compound, the “EC50, CellTiter-Glo” value in assay [7] was 3.83 µM; in assay [8], 4.17 µM; in [9], 7.17 µM; in assay [10], 4.76 µM; in assay [11], 4.85 µM; in assay [31], 0.356 µM. Further, the “EC50, CellTiter-Glo” value is 8.31 µM in assay [14]; 2.56 µM in assay [15]; 2.16 µM in assay [32]; 4.84 µM in assay [16]; 1.55 µM in [17]; 2.16 µM in [18]. Moreover, the “EC50, CellTiter-Glo” value in assay [19] stood at 7.64 µM; in assay [20], 2.38 µM.
On to `O=C(/C=C/c1cccnc1)NCCCCC1CCN(C(=O)c2ccccc2)CC1` [FK-866], for which the “EC50, CellTiter-Blue viability” value came out at 0.0201 µM in assay [27]; 0.0126 µM in assay [28]; 0.0257 µM in [29]; 0.0344 µM in [30]; 0.00168 µM in assay [1]; 0.0213 µM in [2]. The “EC50, CellTiter-Blue viability” value in [33] stood at 0.00301 µM; in assay [34] it was 0.0201 µM; in [35], 0.00408 µM; in assay [36], 0.00405 µM; in assay [37] it was 0.00866 µM; in assay [3] it was 0.00508 µM. Further, the “EC50, CellTiter-Blue viability” value in [4] was 0.0803 µM; in assay [39], 0.0139 µM; in assay [40], 0.00375 µM; in assay [42] it was 0.00608 µM; in [41] it was 0.0175 µM.
Consider `Nc1nc(F)nc2c1ncn2[C@@H]1O[C@H](CO)[C@@H](O)[C@@H]1O` [Fludarabine], for which, in [12], the “EC50, CellTiter-Glo” value was > 10 µM. Besides, the “EC50, CellTiter-Blue viability” value in assay [4] was determined as 1.32 µM; in assay [38] it was 2.12 µM.
For the compound `CC[C@H](Nc1ncnc2[nH]cnc12)c1nc2cccc(F)c2c(=O)n1-c1ccccc1` [GS-1101], the figures for the “EC50, CellTox Green” value in assay [5] and in [21] were 1.43 µM and 8.63 µM, respectively. The “EC50, CellTiter-Glo” value was found to be 7.44 µM in assay [8]; 4.74 µM in assay [9]; 8.05 µM in [12]; 2.95 µM in assay [19]; 4.3 µM in [20].
